Experiments:
velvetleaf [1] = assay: Test Example 5: herbicidal effect by foliage application, plastic box (Table 20, symbol M); format: in vivo, velvetleaf (Abutilon theophrasti); settings: amount of applied herbicide 320 g/ha; foliage application after 14-day growth; evaluated three weeks after application
In short: (§1)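 Foliar spray test: emulsion formulation diluted in water to a set application rate, sprayed onto 14-day-old plants raised in diluvial soil at 25° C to 30° C under glass. Both herbicidal effect and crop effect rated visually three weeks later.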

lambsquarters [2] = assay: Test Example 4: herbicidal effect by soil treatment (Table 19, symbol O); format: in vivo, lambsquarters (Chenopodium album); settings: amount of applied herbicide 320 g/ha
In short: (§2)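 Herbicidal effect was rated 3 weeks after treatment, using the scoring criteria of an earlier test. The compound, formulated as an emulsion and diluted in water to a set herbicide amount, had been sprayed uniformly on soil over freshly sown seeds. Growth took place in a greenhouse at 25° C. to 30° C.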

green foxtail [3] = assay: Test Example 4: herbicidal effect by soil treatment (Table 19, symbol G); format: in vivo, green foxtail (Setaria viridis); settings: amount of applied herbicide 320 g/ha
In short: as §2

blackgrass [4] = assay: Test Example 4: herbicidal effect by soil treatment (Table 19, symbol J); format: in vivo, blackgrass (Alopecurus myosuroides); settings: amount of applied herbicide 320 g/ha
In short: as §2

chickweed [5] = assay: Test Example 4: herbicidal effect by soil treatment (Table 19, symbol P); format: in vivo, common chickweed (Stellaria media); settings: amount of applied herbicide 320 g/ha
In short: as §2

redroot pigweed [6] = assay: Test Example 5: herbicidal effect by foliage application, plastic box (Table 20, symbol N); format: in vivo, redroot pigweed (Amaranthus retroflexus); settings: amount of applied herbicide 320 g/ha; foliage application after 14-day growth; evaluated three weeks after application
In short: as §1

Chinese sprangletop = assay: Test Example 3: herbicidal effect by foliage application, Wagner pot (Table 18, symbol D); format: in vivo, chinese sprangletop (Leptochloa chinensis); settings: 320 g/ha
In short: (§3)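 Plants were sown in alluvial soil held under 0.1–0.5 cm standing water and grown 14 days in a greenhouse at 25–30 °C. An emulsifiable formulation, water-diluted to the set dose, was then sprayed onto the foliage, and effects were scored three weeks later using previously defined criteria.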

southern crabgrass [7] = assay: Test Example 4: herbicidal effect by soil treatment (Table 19, symbol F); format: in vivo, southern crabgrass (Digitaria ciliaris); settings: amount of applied herbicide 320 g/ha
In short: as §2

Italian ryegrass [8] = assay: Test Example 5: herbicidal effect by foliage application, plastic box (Table 20, symbol K); format: in vivo, Italian ryegrass (Lolium multiflorum); settings: amount of applied herbicide 320 g/ha; foliage application after 14-day growth; evaluated three weeks after application
In short: as §1

barnyard grass [9] = assay: Test Example 4: herbicidal effect by soil treatment (Table 19, symbol H); format: in vivo, barnyard grass (Echinochloa crus-galli); settings: amount of applied herbicide 320 g/ha
In short: as §2

windgrass [10] = assay: Test Example 5: herbicidal effect by foliage application, plastic box (Table 20, symbol L); format: in vivo, windgrass (Apera spica-venti); settings: amount of applied herbicide 320 g/ha; foliage application after 14-day growth; evaluated three weeks after application
In short: as §1

wild oat [11] = assay: Test Example 5: herbicidal effect by foliage application, plastic box (Table 20, symbol I); format: in vivo, wild oat (Avena fatua); settings: amount of applied herbicide 320 g/ha; foliage application after 14-day growth; evaluated three weeks after application
In short: as §1

blackgrass [12] = assay: Test Example 5: herbicidal effect by foliage application, plastic box (Table 20, symbol J); format: in vivo, blackgrass (Alopecurus myosuroides); settings: amount of applied herbicide 320 g/ha; foliage application after 14-day growth; evaluated three weeks after application
In short: as §1

persian speedwell [13] = assay: Test Example 5: herbicidal effect by foliage application, plastic box (Table 20, symbol R); format: in vivo, Persian speedwell (Veronica persica); settings: amount of applied herbicide 320 g/ha; foliage application after 14-day growth; evaluated three weeks after application
In short: as §1

barnyard grass [14] = assay: Test Example 5: herbicidal effect by foliage application, plastic box (Table 20, symbol H); format: in vivo, barnyard grass (Echinochloa crus-galli); settings: amount of applied herbicide 320 g/ha; foliage application after 14-day growth; evaluated three weeks after application
In short: as §1

windgrass [15] = assay: Test Example 4: herbicidal effect by soil treatment (Table 19, symbol L); format: in vivo, windgrass (Apera spica-venti); settings: amount of applied herbicide 320 g/ha
In short: as §2

wild oat [16] = assay: Test Example 4: herbicidal effect by soil treatment (Table 19, symbol I); format: in vivo, wild oat (Avena fatua); settings: amount of applied herbicide 320 g/ha
In short: as §2

rice flat sedge = assay: Test Example 3: herbicidal effect by foliage application, Wagner pot (Table 18, symbol E); format: in vivo, rice flat sedge (Cyperus iria); settings: 320 g/ha
In short: as §3

chickweed [17] = assay: Test Example 5: herbicidal effect by foliage application, plastic box (Table 20, symbol P); format: in vivo, common chickweed (Stellaria media); settings: amount of applied herbicide 320 g/ha; foliage application after 14-day growth; evaluated three weeks after application
In short: as §1

barnyard grass [18] = assay: Test Example 3: herbicidal effect by foliage application, Wagner pot (Table 18, symbol H); format: in vivo, barnyard grass (Echinochloa crus-galli); settings: 320 g/ha
In short: as §3

Japanese bulrush = assay: Test Example 1: herbicidal activity, application before weed generation under submerged conditions (Table 16, symbol B); format: in vivo, Japanese bulrush (Schoenoplectus juncoides); settings: amount of applied herbicide 320 g/ha
In short: (§4)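 Alluvial soil was flooded to 4 cm depth, weed seeds were sown mixed and 2.5-leaf rice seedlings were transplanted. On sowing day, the compound's emulsion, diluted in water to a set dose, was applied to the water surface. Plants grew at 25–30 °C and were scored 0–5 after three weeks.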

velvetleaf [19] = assay: Test Example 4: herbicidal effect by soil treatment (Table 19, symbol M); format: in vivo, velvetleaf (Abutilon theophrasti); settings: amount of applied herbicide 320 g/ha
In short: as §2

redroot pigweed [20] = assay: Test Example 4: herbicidal effect by soil treatment (Table 19, symbol N); format: in vivo, redroot pigweed (Amaranthus retroflexus); settings: amount of applied herbicide 320 g/ha
In short: as §2

oval-leafed pondweed = assay: Test Example 1: herbicidal activity, application before weed generation under submerged conditions (Table 16, symbol C); format: in vivo, oval-leafed pondweed (Monochoria vaginalis); settings: amount of applied herbicide 320 g/ha
In short: as §4

persian speedwell [21] = assay: Test Example 4: herbicidal effect by soil treatment (Table 19, symbol R); format: in vivo, Persian speedwell (Veronica persica); settings: amount of applied herbicide 320 g/ha
In short: as §2

late watergrass = assay: Test Example 1: herbicidal activity, application before weed generation under submerged conditions (Table 16, symbol A); format: in vivo, late watergrass (Echinochloa oryzicola); settings: amount of applied herbicide 320 g/ha
In short: as §4

green foxtail [22] = assay: Test Example 5: herbicidal effect by foliage application, plastic box (Table 20, symbol G); format: in vivo, green foxtail (Setaria viridis); settings: amount of applied herbicide 320 g/ha; foliage application after 14-day growth; evaluated three weeks after application
In short: as §1

southern crabgrass [23] = assay: Test Example 5: herbicidal effect by foliage application, plastic box (Table 20, symbol F); format: in vivo, southern crabgrass (Digitaria ciliaris); settings: amount of applied herbicide 320 g/ha; foliage application after 14-day growth; evaluated three weeks after application
In short: as §1

Italian ryegrass [24] = assay: Test Example 4: herbicidal effect by soil treatment (Table 19, symbol K); format: in vivo, Italian ryegrass (Lolium multiflorum); settings: amount of applied herbicide 320 g/ha
In short: as §2

lambsquarters [25] = assay: Test Example 5: herbicidal effect by foliage application, plastic box (Table 20, symbol O); format: in vivo, lambsquarters (Chenopodium album); settings: amount of applied herbicide 320 g/ha; foliage application after 14-day growth; evaluated three weeks after application
In short: as §1

Compound | Herbicidal effect by foliage application, M: velvetleaf (velvetleaf [1]) | O: lambsquarters, herbicidal effect grade (lambsquarters [2]) | G: green foxtail, herbicidal effect grade (green foxtail [3]) | J: blackgrass, herbicidal effect grade (blackgrass [4]) | P: chickweed, herbicidal effect grade (chickweed [5]) | Herbicidal effect by foliage application, N: redroot pigweed (redroot pigweed [6]) | herbicidal effect on Chinese sprangletop (D) (Chinese sprangletop) | F: southern crabgrass, herbicidal effect grade (southern crabgrass [7]) | Herbicidal effect by foliage application, K: Italian ryegrass (Italian ryegrass [8]) | H: barnyard grass, herbicidal effect grade (barnyard grass [9]) | Herbicidal effect by foliage application, L: windgrass (windgrass [10]) | Herbicidal effect by foliage application, I: wild oat (wild oat [11]) | Herbicidal effect by foliage application, J: blackgrass (blackgrass [12]) | Herbicidal effect by foliage application, R: persian speedwell (persian speedwell [13]) | Herbicidal effect by foliage application, H: barnyard grass (barnyard grass [14]) | L: windgrass, herbicidal effect grade (windgrass [15]) | I: wild oat, herbicidal effect grade (wild oat [16]) | herbicidal effect on rice flat sedge (E) (rice flat sedge) | Herbicidal effect by foliage application, P: chickweed (chickweed [17]) | herbicidal effect on barnyard grass (H) (barnyard grass [18]) | also measured
CCOc1ccccc1-c1sc2cc(F)c(F)cc2c1-c1c(O)c(C)nn(C)c1=O [5-016] | 5 (Herbicidal rate of 90% or more (almost completely withered)) | 5 (Herbicidal rate of 90% or more (almost completely withered)) | 5 (Herbicidal rate of 90% or more (almost completely withered)) | 4 (Herbicidal rate of 70% or more and less than 90%) | 5 (Herbicidal rate of 90% or more (almost completely withered)) | 5 (Herbicidal rate of 90% or more (almost completely withered)) | 2 (Herbicidal rate of 20% or more and less than 40%) | 4 (Herbicidal rate of 70% or more and less than 90%) | 3 (Herbicidal rate of 40% or more and less than 70%) | 5 (Herbicidal rate of 90% or more (almost completely withered)) | 5 (Herbicidal rate of 90% or more (almost completely withered)) | 0 (Herbicidal rate of 5% or less (almost no effect)) | 4 (Herbicidal rate of 70% or more and less than 90%) | 5 (Herbicidal rate of 90% or more (almost completely withered)) | 5 (Herbicidal rate of 90% or more (almost completely withered)) | 5 (Herbicidal rate of 90% or more (almost completely withered)) | 0 (Herbicidal rate of 5% or less (almost no effect)) | 5 (Herbicidal rate of 90% or more (almost completely withered)) | 5 (Herbicidal rate of 90% or more (almost completely withered)) | 5 (Herbicidal rate of 90% or more (almost completely withered)) | Herbicidal effect, B: Japanese bulrush (Japanese bulrush): 1 (Herbicidal rate of 5% or more and less than 20%); M: velvetleaf, herbicidal effect grade (velvetleaf [19]): 4 (Herbicidal rate of 70% or more and less than 90%); N: redroot pigweed, herbicidal effect grade (redroot pigweed [20]): 5 (Herbicidal rate of 90% or more (almost completely withered)); Herbicidal effect, C: oval-leafed pondweed (oval-leafed pondweed): 0 (Herbicidal rate of 5% or less (almost no effect)); R: persian speedwell, herbicidal effect grade (persian speedwell [21]): 5 (Herbicidal rate of 90% or more (almost completely withered)); Herbicidal effect, A: late watergrass (late watergrass): 3 (Herbicidal rate of 40% or more and less than 70%); Herbicidal effect by foliage application, G: green foxtail (green foxtail [22]): 5 (Herbicidal rate of 90% or more (almost completely withered)); Herbicidal effect by foliage application, F: southern crabgrass (southern crabgrass [23]): 4 (Herbicidal rate of 70% or more and less than 90%); K: Italian ryegrass, herbicidal effect grade (Italian ryegrass [24]): 3 (Herbicidal rate of 40% or more and less than 70%); Herbicidal effect by foliage application, O: lambsquarters (lambsquarters [25]): 4 (Herbicidal rate of 70% or more and less than 90%)
Cc1nn(C)c(=O)c(-c2c(-c3ccccc3OC(C)C)sc3cc(F)c(F)cc23)c1O [5-018] | 4 (Herbicidal rate of 70% or more and less than 90%) | 1 (Herbicidal rate of 5% or more and less than 20%) | 3 (Herbicidal rate of 40% or more and less than 70%) | 0 (Herbicidal rate of 5% or less (almost no effect)) | 4 (Herbicidal rate of 70% or more and less than 90%) | 1 (Herbicidal rate of 5% or more and less than 20%) | 0 (Herbicidal rate of 5% or less (almost no effect)) | 0 (Herbicidal rate of 5% or less (almost no effect)) | 0 (Herbicidal rate of 5% or less (almost no effect)) | 2 (Herbicidal rate of 20% or more and less than 40%) | 0 (Herbicidal rate of 5% or less (almost no effect)) | 0 (Herbicidal rate of 5% or less (almost no effect)) | 1 (Herbicidal rate of 5% or more and less than 20%) | 5 (Herbicidal rate of 90% or more (almost completely withered)) | 0 (Herbicidal rate of 5% or less (almost no effect)) | 0 (Herbicidal rate of 5% or less (almost no effect)) | 0 (Herbicidal rate of 5% or less (almost no effect)) | 3 (Herbicidal rate of 40% or more and less than 70%) | 5 (Herbicidal rate of 90% or more (almost completely withered)) | 4 (Herbicidal rate of 70% or more and less than 90%) | Herbicidal effect, B: Japanese bulrush (Japanese bulrush): 5 (Herbicidal rate of 90% or more (almost completely withered)); M: velvetleaf, herbicidal effect grade (velvetleaf [19]): 0 (Herbicidal rate of 5% or less (almost no effect)); N: redroot pigweed, herbicidal effect grade (redroot pigweed [20]): 2 (Herbicidal rate of 20% or more and less than 40%); Herbicidal effect, C: oval-leafed pondweed (oval-leafed pondweed): 5 (Herbicidal rate of 90% or more (almost completely withered)); R: persian speedwell, herbicidal effect grade (persian speedwell [21]): 3 (Herbicidal rate of 40% or more and less than 70%); Herbicidal effect, A: late watergrass (late watergrass): 0 (Herbicidal rate of 5% or less (almost no effect)); Herbicidal effect by foliage application, G: green foxtail (green foxtail [22]): 2 (Herbicidal rate of 20% or more and less than 40%); Herbicidal effect by foliage application, F: southern crabgrass (southern crabgrass [23]): 0 (Herbicidal rate of 5% or less (almost no effect)); K: Italian ryegrass, herbicidal effect grade (Italian ryegrass [24]): 0 (Herbicidal rate of 5% or less (almost no effect)); Herbicidal effect by foliage application, O: lambsquarters (lambsquarters [25]): 0 (Herbicidal rate of 5% or less (almost no effect))

Source: patent US20230085307A1, “PYRIDAZINONE COMPOUND AND HERBICIDE” (NISSAN CHEMICAL CORPORATION, priority 2019, published 2023)
